Results published in article PMC11575542 (Chemical Science, 2024).

Assays:
FabB (ketosynthase) = FabB (ketosynthase) (Escherichia coli, UniProt P0A953); assay type: binding
FabF (ketosynthase) = FabF (ketosynthase) (Escherichia coli, UniProt P0AAI5); assay type: binding
Chain of FabF (ketosynthase) (P0AAI5 2-413): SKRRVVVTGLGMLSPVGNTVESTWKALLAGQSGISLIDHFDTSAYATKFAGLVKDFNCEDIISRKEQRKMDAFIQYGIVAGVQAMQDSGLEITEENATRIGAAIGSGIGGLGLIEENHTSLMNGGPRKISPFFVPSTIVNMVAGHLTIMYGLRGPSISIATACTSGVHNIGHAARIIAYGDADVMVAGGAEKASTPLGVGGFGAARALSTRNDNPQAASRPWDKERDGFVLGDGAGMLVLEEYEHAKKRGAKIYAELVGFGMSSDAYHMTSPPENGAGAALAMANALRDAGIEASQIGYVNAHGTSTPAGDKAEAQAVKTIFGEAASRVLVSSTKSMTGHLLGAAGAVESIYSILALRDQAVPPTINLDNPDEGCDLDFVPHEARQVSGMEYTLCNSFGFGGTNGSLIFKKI
Chain of FabF (ketosynthase) (P0A6A8 2-78 partner): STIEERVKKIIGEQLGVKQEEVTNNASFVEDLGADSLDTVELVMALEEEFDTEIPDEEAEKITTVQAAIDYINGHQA

Chain of FabB (ketosynthase) (P0A953 whole entry): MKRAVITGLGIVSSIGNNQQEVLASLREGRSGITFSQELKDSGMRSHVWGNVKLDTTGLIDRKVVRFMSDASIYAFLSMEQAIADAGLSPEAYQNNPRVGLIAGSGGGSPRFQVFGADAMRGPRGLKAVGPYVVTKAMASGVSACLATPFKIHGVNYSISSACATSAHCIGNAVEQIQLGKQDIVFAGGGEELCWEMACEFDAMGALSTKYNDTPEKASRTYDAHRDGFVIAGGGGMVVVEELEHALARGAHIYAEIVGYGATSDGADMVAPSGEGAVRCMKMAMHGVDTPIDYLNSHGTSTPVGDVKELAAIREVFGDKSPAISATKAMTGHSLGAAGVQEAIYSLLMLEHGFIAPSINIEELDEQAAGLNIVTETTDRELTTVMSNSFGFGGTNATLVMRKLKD
Chain of FabB (ketosynthase) (P0A6A8 2-78 partner): as the sequence (P0A6A8 2-78 partner) above

Structure (SMILES): C/C=C/C/C=C/CCC(=O)[C@H]1O[C@H]1C(N)=O [cerulenin]
- IC50 (FabB (ketosynthase)): ~22.5 µM
- IC50 (FabF (ketosynthase)): ~21.1 µM
